Source: patent US7365085B2, “Compounds and methods” (SmithKline Beecham Corporation, priority 2002, dated 2008)

Columns and labels:
[1] = target: T1, human LXRβ ligand binding domain (Homo sapiens, UniProt P55055); assay: Ligand Sensing Assay (LiSA) for LXRβ agonist activity (recruitment of SRC1-derived peptide); format: biochemical; conditions: 1 μM; over a background reading of 10000 fluorescence units
T1 construct: made in house; host or cells: E. coli BL21 (DE3), vector pRSETa
T1 sequence (P55055 184-460 limits assumed): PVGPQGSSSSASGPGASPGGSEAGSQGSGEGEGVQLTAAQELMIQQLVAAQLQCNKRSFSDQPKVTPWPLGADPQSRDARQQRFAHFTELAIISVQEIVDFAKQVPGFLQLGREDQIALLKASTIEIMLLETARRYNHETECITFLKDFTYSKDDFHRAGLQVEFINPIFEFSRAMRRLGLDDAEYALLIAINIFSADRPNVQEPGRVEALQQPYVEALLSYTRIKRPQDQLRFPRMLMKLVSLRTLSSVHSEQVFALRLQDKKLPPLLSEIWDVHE
T1 sequence (Q15788 676-700 partner limits assumed): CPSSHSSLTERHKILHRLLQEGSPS
Description: The term “LXR modulator,” as used herein, means a small molecule that modulates the biological activities of LXRα and/or LXRβ. More specifically, such an LXR modulator either enhances or inhibits the biological activities of LXR. If such a modulator partially or completely enhances the biological activities of LXR, it is a partial or complete LXR agonist, respectively. […] Preferably, the LXR modulator compounds of this invention are LXR agonists. As used herein, the term “LXR agonist” refers to compounds which achieve at least 20% activation of LXR relative to 24(S),25-epoxycholesterol, the appropriate positive control in the HTRF assay described below in Test Method 1. It should be noted that to show activity in the specific Test Methods described herein, the LXR modulator compound must bind to the LXR nuclear receptor and recruit the specific peptide derived from the coactivator protein, SRC1, to the modulator compound-bound LXR complex. […]
Typically 25-50 g of cell paste is resuspended in 250-500 mL TBS, pH 8.0 (25 mM Tris, 150 mM NaCl). […] After washing to baseline absorbance with equilibration buffer, the column is washed with approximately one column volume of TBS pH […] containing 95 mM imidazole. […] Afterwashing to baseline absorbance with the dilution buffer the protein is eluted with a gradient from 50-500 mM NaCl. […]

[2] = target: T2, LXRα ligand binding domain (Homo sapiens, UniProt Q13133); assay: Ligand Sensing Assay for LXRα agonist activity; format: biochemical; conditions: 1 μM; over a background reading of 10000 fluorescence units
T2 construct: His tag; made in house
T2 sequence (Q13133 183-447): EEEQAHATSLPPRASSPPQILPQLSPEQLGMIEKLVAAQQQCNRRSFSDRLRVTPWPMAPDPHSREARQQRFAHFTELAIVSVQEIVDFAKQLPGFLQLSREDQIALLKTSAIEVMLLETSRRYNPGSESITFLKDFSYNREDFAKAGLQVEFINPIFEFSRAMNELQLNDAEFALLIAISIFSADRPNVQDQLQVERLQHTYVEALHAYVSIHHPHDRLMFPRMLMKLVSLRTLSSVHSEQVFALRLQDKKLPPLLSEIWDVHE
T2 sequence (Q15788 676-700 partner): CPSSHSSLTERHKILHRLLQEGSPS
Protocol: Test Method 2: Ligand Sensing Assay for LXRα Agonist Activity
The assay for LXRα was run according to the procedures of Test Method 1, above using his-tagged LXRα ligand binding domain (amino acids 183-447 of Genbank accession number U22662, with the 14th amino acid corrected to A from R). In this assay 1 μM 24(S),25-epoxycholesterol gave a reading of 20000 fluorescence units over a background reading of 10000 fluorescence units.

Compound `C[C@H](CC[C@@H]1OC1(C)C)[C@H]1CC[C@H]2[C@@H]3CC=C4C[C@@H](O)CC[C@]4(C)[C@H]3CC[C@]12C` [24(S),25-epoxycholesterol] has a reading [1] of 20000 fluorescence units and a reading [2] of 20000 fluorescence units.
